Measurements: publication PMC10702189, “Tetrazine Glycoconjugate for Pretargeted Positron Emission Tomography Imaging of trans-Cyclooctene-Functionalized Molecular Spherical Nucleic Acids” (ACS Omega, 2023)
Read-outs that look alike come from different tables or passages of the source.

Assays:
[1] = target: T1, GLUT1 (Homo sapiens, UniProt P11166); parameters: method as in PMID 33390018; conditions: CAL27 cells; cited from earlier work
T1 construct: host or cells: CAL27 squamous cell carcinoma cells
T1 sequence (P11166 1-492): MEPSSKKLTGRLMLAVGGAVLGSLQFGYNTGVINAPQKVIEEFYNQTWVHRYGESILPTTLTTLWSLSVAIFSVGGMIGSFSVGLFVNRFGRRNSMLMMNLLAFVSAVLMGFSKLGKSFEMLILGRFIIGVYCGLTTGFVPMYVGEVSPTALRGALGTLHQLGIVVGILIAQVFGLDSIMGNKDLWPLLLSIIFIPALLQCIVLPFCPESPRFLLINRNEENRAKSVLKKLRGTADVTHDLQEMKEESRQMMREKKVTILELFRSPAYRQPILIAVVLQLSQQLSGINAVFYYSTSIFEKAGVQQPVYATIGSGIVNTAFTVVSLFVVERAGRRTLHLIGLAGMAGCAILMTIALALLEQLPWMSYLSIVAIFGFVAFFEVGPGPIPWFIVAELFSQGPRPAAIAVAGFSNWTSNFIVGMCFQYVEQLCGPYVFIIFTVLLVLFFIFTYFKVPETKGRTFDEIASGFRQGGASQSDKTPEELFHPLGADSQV

[2] = target: T1, GLUT1; assay: Competition for GLUT1 binding with D-[14C]-glucose in CAL27 cells; type: cell-based; conditions: for IC50: 5 min at r.t., 1.8 μM D-[14C]-glucose, compounds 0.5–1400 μM, read-out: IC50, inhibition of D-[14C]-glucose (GLUT1 binding affinity)
Procedure: (§1) CAL27 squamous cell carcinoma cells (ATCC CRL-2095) were purchased from the American Type Culture Collection (ATCC, Manassas, VA, USA). CAL27 cells were cultured in Dulbecco’s modified Eagle medium (DMEM; Gibco, ThermoFisher Scientific, Waltham, MA, USA) supplemented with L-glutamine (2.0 mM; ThermoFisher Scientific, Waltham, MA, USA), heat-inactivated fetal bovine serum (10%; Gibco, ThermoFisher Scientific, Waltham, MA, USA), and penicillin (50 U/mL)–streptomycin (50 μg/mL) solution (ThermoFisher Scientific, Waltham, MA, USA). CAL27 cells (passages 6–10) were seeded at the density of 5 × 10^5 cells/wells onto 24-well plates. The cells were used in affinity and uptake studies 2 days after seeding. The culture medium was removed, and the cells were washed with prewarmed Hank’s balanced salt solution (HBSS) without glucose (HBSS; 125 mM NaCl, 4.8 mM KCl, 1.2 mM MgSO4, 1.3 mM KH2PO4, 1.3 mM CaCl2, and 25 mM HEPES adjusted to pH 7.4). The cells were then incubated with HBSS at 37 °C for 10 min before the experiments.
The GLUT1-binding ability of the studied compounds was performed by using a known radiolabeled GLUT1 substrate, D-[^14C]-glucose (PerkinElmer, Waltham, MA, USA). Briefly, after preincubation with 500 μL of prewarmed glucose free HBSS, the cells were incubated at r.t. for 5 min with studied compounds (0.5–1400 μM) containing 1.8 μM (0.1 mCi/mL) of D-[^14C]-glucose in glucose free HBSS (250 μL) and D-[^14C]-glucose as blank. The reaction was stopped with ice-cold buffer, and the cells were washed two times with ice-cold buffer on the ice bath, lysed with 250 μL of 1% perchloric acid, and mixed with 1.0 mL of emulsifier safe cocktail (PerkinElmer, Waltham, MA, USA). The radioactivity was measured by a liquid scintillation counter (MicroBeta[2] counter, PerkinElmer, Waltham, MA, USA), (Figure S12). Half-maximal inhibitory concentration (IC50) was calculated by nonlinear regression analysis.

[3] = test system: CAL27 cell line; assay: Concentration-dependent cell uptake in CAL27 cells (LC-MS/MS); type: cell-based, human; conditions: 5–400 μM, 5 min; for Km: read-out: Km of cellular uptake
Procedure: as §1
The cells were first preincubated as described above. The cell uptake of these novel compounds was studied by adding 5–400 μM of studied compounds in 250 μL of prewarmed glucose free HBSS buffer on top of the cell layer and incubating the cells at r.t. for 5 min, based on the optimal performance of D-[^14C]-glucose under these conditions. After incubation, the reaction was stopped with ice-cold buffer; the cells were then washed and lysed as described above.
For the LC-MS/MS analysis, an aliquot was taken from the lysates and diluted with acidified acetonitrile (0.1% formic acid) 1:1, including internal standard (IS). FDG-Tz was used as an internal standard for FDR-Tz, and vice versa. After protein precipitation, the samples were centrifuged for 10 min with 10,000 × g at 4 °C. The supernatant was then collected and transferred to vials for LC-MS/MS analysis.
The samples were analyzed with LC-MS/MS coupled with an Agilent 1200 series Rapid Resolution LC System (Agilent Technologies, Waldbronn, Germany) and Agilent 6410 Triple Quadrupole with an electrospray ionization (ESI) (Agilent Technologies, Palo Alto, CA, USA). The samples were injected (5 μL) into the reversed-phase HPLC column (Zorbax Eclipse XDB-C18 Rapid Resolution 4.6 × 50 mm, […], Agilent Technologies, Palo Alto, CA, USA). The aqueous mobile phase was 0.1% formic acid in water (A), while the organic mobile phase was 0.1% formic acid in acetonitrile (B).
The column temperature was 40 °C and the flow rate of 0.5 mL/min was used, with the following gradient 0–4 min: 5% → 95% B, 4–6 min: 95% B, 6–6.1 min: 95% → 5% B, 6.1–8 min: 5% B. The following instrument optimizations were used: 300 °C sheath gas heat, 6.5 L/min drying gas flow, 25 psi nebulizer pressure, and 4000 V capillary voltage, respectively. Detection was performed by using multiple reaction monitoring (MRM) with the following transitions: m/z 425 → 261 for FDG-Tz and m/z 395 → 261 for FDR-Tz.
The lower limit of quantification (LLOQ) for both studied compounds was 5 nM. These LC-MS/MS methods were also selective, accurate (RSD < 15%) and precise (RSD < 15%) over the range 5.0–2500 nM, with good linearity (R^2 > 0.993).
Three replicates were analyzed from each concentration, and the statistical analyses were performed using GraphPad Prism v.5.03 software (GraphPad Software, San Diego, CA, USA).

Row | SMILES | IC50 [1] [µM] | IC50 [2] [µM] | Fold higher affinity for GLUT1 compared to FDG-Tz ([2]; ratio of IC50 values) [times] | Vmax of cellular uptake [3] | Km [3] [µM] | Concentration dependence of cellular uptake (shape of curve) [3]
1 | OC[C@H]1OC(O)[C@H](O)[C@@H](O)[C@@H]1O (stereo partly drawn) [D-glucose] | > 1000 | – | – | – | – | –
2 | O=C(CON=C[C@@H](O)[C@@H](O)[C@@H](O)CF)NCc1ccc(-c2nncnn2)cc1 [FDR-Tz, N-(4-(1,2,4,5-tetrazin-3-yl)benzyl)-2-((((2R,3R,4R)-5-fluoro-2,3,4-trihydroxypentylidene)amino)oxy)acetamide, reference compound] | – | 22.4 | ~15 | 27.8 ± 3.7 pmol/min/mg of protein | 3.6 ± 7.8 | –
3 | O=C(CON=C[C@H](F)[C@@H](O)[C@H](O)C(O)CO)NCc1ccc(-c2nncnn2)cc1 (stereo partly drawn) [FDG-Tz, N-(4-(1,2,4,5-tetrazin-3-yl)benzyl)-2-((((2S,3S,4R)-2-fluoro-3,4,5,6-tetrahydroxyhexylidene)amino)oxy)acetamide] | – | 324 | – | 63.2 ± 8.5 pmol/min/mg of protein | 27.6 ± 13.8 | concentration-dependent
